The results in this text go back to ChEMBL document CHEMBL1201862, “PubChem BioAssay data set” (2004).

Among the test systems are CCRF-CEM; COLO 205; EKVX; HCT-15; HL-60; MOLT-4; Malme-3M; NCI-H226; OVCAR-3; OVCAR-4; OVCAR-5; SF-268; SF-539; SNB-19; SR; UACC-257; HOP-62.
Assay in all cases: growth of human tumour cells (NCI), 48 h

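All cell lines were grown in 96-well plates and treated with compound for 48 hours. GI50 marks 50% less growth.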 Activity calls are given as the source filed them. Cut-off read from the data, not from the text of the source: active = GI50 up to about 1.1 µM and inactive = higher.

For `C=C(C(=O)O)[C@@H]1C[C@@H]2O[C@H]1CC(C)=CCC/C(C)=C/CC[C@@]2(C)O`, the GI50 was > 100 µM (inactive) with CCRF-CEM; > 100 µM (inactive) in the experiment with COLO 205; > 100 µM (inactive) in the experiment on EKVX; over 100 µM in the experiment with HCT-15; > 100 µM (inactive) in the experiment on HL-60; > 100 µM (inactive) in the experiment on MOLT-4. Further, the GI50 in the experiment on Malme-3M, with NCI-H226, in the experiment on OVCAR-3, in the experiment on OVCAR-4, with OVCAR-5 and in the experiment with SF-268 was > 100 µM (inactive) each time. The GI50 in the experiment on SF-539, with SNB-19, in the experiment on SR and in the experiment with UACC-257 was > 100 µM (inactive) each time.
Regarding `O=C(O)c1c(CC(Cc2ccc3c(c2)CCCC3)C(=O)O)ccc2c1CCCC2` (stereo not given), the GI50 is > 100 µM (inactive) in the experiment on CCRF-CEM; > 100 µM (inactive) with COLO 205; > 100 µM (inactive) in the experiment on EKVX; over 100 µM in the experiment on HCT-15; > 100 µM (inactive) in the experiment on HL-60; > 100 µM (inactive) with HOP-62. Besides, the GI50 in the experiment on MOLT-4, in the experiment with Malme-3M, in the experiment on NCI-H226, with OVCAR-3, in the experiment with OVCAR-5 and in the experiment with SF-268 was > 100 µM (inactive) throughout. Besides, the GI50 in the experiment on SF-539, in the experiment on SNB-19, in the experiment on SR and in the experiment on UACC-257 was > 100 µM (inactive) each time.
For the compound `Cc1ccc(N/N=C/C2=CC(C)(C)C(C#N)(C#N)C(O)=C2C#N)cc1`, the GI50 in the experiment on CCRF-CEM is 24.5 µM (inactive); in the experiment with COLO 205, 26.9 µM (inactive); in the experiment with EKVX, 61.1 µM (inactive); in the experiment with HL-60, 17.3 µM (inactive); with HOP-62, 78.3 µM (inactive); with MOLT-4, 30.5 µM (inactive). The GI50 in the experiment on Malme-3M is > 100 µM (inactive); in the experiment with NCI-H226, > 100 µM (inactive); with OVCAR-3, 36.6 µM (inactive); in the experiment with OVCAR-4 it was 96.8 µM (inactive); in the experiment with OVCAR-5, > 100 µM (inactive); in the experiment with SF-268, 49 µM (inactive). The GI50 was > 100 µM (inactive) in the experiment on SF-539, 86.5 µM (inactive) in the experiment on SNB-19, 14.3 µM (inactive) in the experiment on SR and 38.8 µM (inactive) with UACC-257.
For `COc1ccc(N2C(=O)C(=O)N(c3ccccc3[N+](=O)[O-])C2=S)cc1`, the GI50 with CCRF-CEM was 81.7 µM (inactive); in the experiment on COLO 205, 19.4 µM (inactive); in the experiment with EKVX it was 30.5 µM (inactive); in the experiment on HCT-15, 18.2 µM; in the experiment with HL-60, 46 µM (inactive); in the experiment with HOP-62, 50 µM (inactive). Further, the GI50 in the experiment on MOLT-4 is 34.8 µM (inactive); in the experiment with Malme-3M, 36.8 µM (inactive); with NCI-H226, 28.2 µM (inactive); in the experiment on OVCAR-4, 18.9 µM (inactive); in the experiment with OVCAR-5, 22.4 µM (inactive); with SF-268, 33.7 µM (inactive). The GI50 in the experiment with SF-539 was 30.1 µM (inactive); in the experiment on SNB-19, 44.6 µM (inactive); in the experiment with SR it was 47.3 µM (inactive); in the experiment with UACC-257 it was 17.1 µM (inactive).
Take `Cc1ccc(S(=O)(=O)NC(=O)NCC(=O)NCC(=O)O)cc1`: the GI50 with CCRF-CEM was > 100 µM (inactive); with COLO 205, > 100 µM (inactive); in the experiment on EKVX, > 100 µM (inactive); with HCT-15 it was over 100 µM; with HL-60, > 100 µM (inactive); with MOLT-4, > 100 µM (inactive). In addition, the GI50 with Malme-3M, with NCI-H226, in the experiment on OVCAR-3, in the experiment on OVCAR-4, in the experiment on OVCAR-5 and with SF-268 was > 100 µM (inactive) throughout. Besides, the GI50 in the experiment on SF-539, in the experiment with SNB-19, with SR and in the experiment on UACC-257 was > 100 µM (inactive) each time.
